± gives the expanded uncertainty stated by the source.
Conditions: Fluid (supercritical or subcritical phases), Coaxial cylinder method

CCC [propane]
Conditions	thermal conductivity [W/m/K]
375.1 K, 4950 kPa	0.06533 ± 0.0026
375.1 K, 5040 kPa	0.06533 ± 0.0026
375.1 K, 5140 kPa	0.0653 ± 0.0026
375.1 K, 5160 kPa	0.06529 ± 0.0026
375.1 K, 5226 kPa	0.06525 ± 0.0026
375.1 K, 5322 kPa	0.06576 ± 0.0026
375.1 K, 5580 kPa	0.06644 ± 0.0026
375.1 K, 5830 kPa	0.06691 ± 0.0026
375.1 K, 6480 kPa	0.06842 ± 0.0027
375.1 K, 6540 kPa	0.06846 ± 0.0027
375.1 K, 7140 kPa	0.06958 ± 0.0027
375.1 K, 8020 kPa	0.07114 ± 0.0027
375.1 K, 8950 kPa	0.07271 ± 0.0028
375.1 K, 9500 kPa	0.07355 ± 0.0028
375.1 K, 9700 kPa	0.0739 ± 0.0028
375.1 K, 10360 kPa	0.075 ± 0.0029
375.9 K, 3110 kPa	0.03373 ± 0.0016
375.9 K, 3134 kPa	0.0338 ± 0.0016
375.9 K, 3250 kPa	0.03412 ± 0.0016
375.9 K, 3300 kPa	0.03433 ± 0.0016
375.9 K, 3550 kPa	0.03563 ± 0.0016
375.9 K, 3600 kPa	0.03595 ± 0.0016
375.9 K, 3800 kPa	0.03747 ± 0.0017
375.9 K, 4000 kPa	0.03934 ± 0.0017
375.9 K, 4050 kPa	0.03986 ± 0.0018
375.9 K, 4125 kPa	0.04091 ± 0.0018
375.9 K, 4250 kPa	0.04345 ± 0.0019
375.9 K, 4350 kPa	0.04589 ± 0.0019
375.9 K, 4400 kPa	0.04729 ± 0.002
375.9 K, 4450 kPa	0.04877 ± 0.002
375.9 K, 4510 kPa	0.05175 ± 0.0021
375.9 K, 4540 kPa	0.0535 ± 0.0022
375.9 K, 4560 kPa	0.05503 ± 0.0023
375.9 K, 4570 kPa	0.05607 ± 0.0023
375.9 K, 4580 kPa	0.05714 ± 0.0023
375.9 K, 4590 kPa	0.05826 ± 0.0024
375.9 K, 4600 kPa	0.05949 ± 0.0024
375.9 K, 4620 kPa	0.06128 ± 0.0025
375.9 K, 4630 kPa	0.06278 ± 0.0026
375.9 K, 4640 kPa	0.06448 ± 0.0026
375.9 K, 4650 kPa	0.06572 ± 0.0027
375.9 K, 4660 kPa	0.06701 ± 0.0027
375.9 K, 4670 kPa	0.06835 ± 0.0027
375.9 K, 4680 kPa	0.06967 ± 0.0027
375.9 K, 4690 kPa	0.07058 ± 0.0027
375.9 K, 4700 kPa	0.07156 ± 0.0028
375.9 K, 4720 kPa	0.07283 ± 0.0028
375.9 K, 4740 kPa	0.07257 ± 0.0028
375.9 K, 4760 kPa	0.07206 ± 0.0028
375.9 K, 4780 kPa	0.07106 ± 0.0027
375.9 K, 4800 kPa	0.0705 ± 0.0027
375.9 K, 4820 kPa	0.06995 ± 0.0027
375.9 K, 4840 kPa	0.06936 ± 0.0027
375.9 K, 4880 kPa	0.06835 ± 0.0027
375.9 K, 4950 kPa	0.06708 ± 0.0026
375.9 K, 5050 kPa	0.06621 ± 0.0026
375.9 K, 5100 kPa	0.0662 ± 0.0026
375.9 K, 5200 kPa	0.06603 ± 0.0026
375.9 K, 5250 kPa	0.06588 ± 0.0026
375.9 K, 5500 kPa	0.06634 ± 0.0026
375.9 K, 5550 kPa	0.06631 ± 0.0026
375.9 K, 5700 kPa	0.06671 ± 0.0026
375.9 K, 5820 kPa	0.06682 ± 0.0026
375.9 K, 5900 kPa	0.06696 ± 0.0026
375.9 K, 6000 kPa	0.06714 ± 0.0026
375.9 K, 6200 kPa	0.06746 ± 0.0026
375.9 K, 6800 kPa	0.06884 ± 0.0027
375.9 K, 7200 kPa	0.0696 ± 0.0027
375.9 K, 7800 kPa	0.07056 ± 0.0027
375.9 K, 8500 kPa	0.072 ± 0.0028
375.9 K, 9000 kPa	0.07288 ± 0.0028
375.9 K, 9190 kPa	0.07314 ± 0.0028
375.9 K, 9806 kPa	0.07405 ± 0.0028
375.9 K, 10000 kPa	0.07439 ± 0.0028
375.9 K, 11000 kPa	0.07591 ± 0.0029
375.9 K, 11028 kPa	0.07597 ± 0.0029
375.9 K, 11500 kPa	0.0765 ± 0.0029
375.9 K, 12000 kPa	0.07724 ± 0.0029
375.9 K, 13000 kPa	0.07845 ± 0.003
381 K, 3253 kPa	0.03426 ± 0.0016
381 K, 3260 kPa	0.03429 ± 0.0016
381 K, 3320 kPa	0.03451 ± 0.0016
381 K, 3428 kPa	0.03498 ± 0.0016
381 K, 3580 kPa	0.03558 ± 0.0016
381 K, 3820 kPa	0.03665 ± 0.0016
381 K, 3880 kPa	0.03705 ± 0.0017
381 K, 4040 kPa	0.03825 ± 0.0017
381 K, 4100 kPa	0.0389 ± 0.0017
381 K, 4220 kPa	0.04027 ± 0.0018
381 K, 4520 kPa	0.04459 ± 0.0019
381 K, 4560 kPa	0.04539 ± 0.0019
381 K, 4600 kPa	0.04618 ± 0.0019
381 K, 4660 kPa	0.04756 ± 0.002
381 K, 4740 kPa	0.04988 ± 0.0021
381 K, 4780 kPa	0.05126 ± 0.0021
381 K, 4800 kPa	0.05187 ± 0.0021
381 K, 4860 kPa	0.05418 ± 0.0022
381 K, 4880 kPa	0.05506 ± 0.0022
381 K, 4900 kPa	0.05594 ± 0.0022
381 K, 4920 kPa	0.05685 ± 0.0023
381 K, 4960 kPa	0.05866 ± 0.0023
381 K, 5000 kPa	0.06046 ± 0.0024
381 K, 5020 kPa	0.06124 ± 0.0024
381 K, 5040 kPa	0.06198 ± 0.0024
381 K, 5060 kPa	0.06268 ± 0.0025
381 K, 5100 kPa	0.06374 ± 0.0025
381 K, 5150 kPa	0.06448 ± 0.0025
381 K, 5200 kPa	0.06448 ± 0.0025
381 K, 5250 kPa	0.06475 ± 0.0025
381 K, 5300 kPa	0.06444 ± 0.0025
381 K, 5350 kPa	0.06439 ± 0.0025
381 K, 5390 kPa	0.06427 ± 0.0025
381 K, 5450 kPa	0.06435 ± 0.0025
381 K, 5550 kPa	0.06436 ± 0.0025
381 K, 5700 kPa	0.06435 ± 0.0025
381 K, 5900 kPa	0.06423 ± 0.0025
381 K, 6200 kPa	0.06503 ± 0.0025
381 K, 6500 kPa	0.06554 ± 0.0026
381 K, 6900 kPa	0.0664 ± 0.0026
381 K, 7162 kPa	0.06699 ± 0.0026
381 K, 7300 kPa	0.06714 ± 0.0026
381 K, 7583 kPa	0.06767 ± 0.0026
381 K, 9036 kPa	0.07035 ± 0.0027
381 K, 10110 kPa	0.07235 ± 0.0028
381 K, 11000 kPa	0.07371 ± 0.0028
381 K, 12000 kPa	0.07531 ± 0.0029
381 K, 14750 kPa	0.07855 ± 0.003

Reference: the NIST ThermoML archive (doi:10.1021/je500395f)
